From patent US5352608A (priority 1992, dated 1994)

Columns and labels:
[1] = system: Rhodobacter sphaeroides 2.4.1; assay type: cell-based
[2] = system: Rhodospirillum rubrum Ha; test: Intrinsic HLR to TeO3^2- (MIC); assay type: cell-based
[3] = system: Rhodopseudomonas viridis F; test: Intrinsic HLR to TeO3^2- (MIC); assay type: cell-based
[4] = system: Rhodobacter sphaeroides 2.4.7; test: Intrinsic HLR to TeO3^2- (MIC); assay type: cell-based
[5] = system: Rhodobacter sphaeroides RS2; test: Intrinsic HLR to TeO3^2- (MIC); assay type: cell-based; conditions: for MIC of RS2 lower than strain 2.4.1, 2.4.7 or WS8: approximately
[6] = system: R. sphaeroides 2.4.1-Ga; test: Intrinsic HLR to tellurite in R. sphaeroides mutants (MIC); assay type: cell-based, Rhodobacter sphaeroides; conditions: for MIC K2 TeO3: SMM succinate
Procedure: (§1) All Proteobacteria were grown at 30° C. with the exception of E. coli which was cultured at 37° C. on a Gyrotary shaker. Cultures of R. sphaeroides and R. gelatinosus were grown in LB, YP, or SMM containing either 0.4% succinate, 0.4% malate, or 0.4% butyrate as a carbon source. Cultures of R. capsulatus were grown in RCVB minimal medium containing 0.4% malate as a carbon source; R. rubrum was grown in SMM containing 0.4% malate, and 0.1% yeast extract. R. palustris and R. viridis were grown in SMM containing 0.4% malate, 0.1% yeast extract, and 50 μg/ml each of p-aminobenzoic acid and cyanocobalamin. […] Anaerobic-dark growth of R. sphaeroides on SMM medium containing DMSO, and photoheterotrophic growth conditions have been previously reported.
(§2) Several growth conditions were examined to determine requirements for tellurite reduction in vivo. Table 5 indicates the growth conditions tested.
(§3) ^a MIC were determined in SMM containing succinate at 30° C.
(§4) ^c Supplemented with 60 mM DMSO.

[7] = system: R. sphaeroides 2.4.1ΔS; test: as above; assay type: cell-based, Rhodobacter sphaeroides; conditions: for MIC K2 TeO3: SMM succinate
Procedure: as §1, §2, §3, §4

[8] = system: R. sphaeroides CFXA^-; test: as above; assay type: cell-based, Rhodobacter sphaeroides; conditions: for MIC K2 TeO3: SMM succinate; for Increase in TeO3^2- sensitivity: cfxA deletion
Procedure: as §1, §2, §3, §4

[9] = system: R. sphaeroides CFXB^-; test: as above; assay type: cell-based, Rhodobacter sphaeroides; conditions: for MIC K2 TeO3: SMM succinate
Procedure: as §1, §2, §3, §4

[10] = system: R. sphaeroides CYCA1; test: as above; assay type: cell-based, Rhodobacter sphaeroides; conditions: SMM succinate; aerobic; ( ) = resistance but no deposition of Te^0
Procedure: as §1, §2, §3, §4

[11] = system: R. sphaeroides MM1006; test: as above; assay type: cell-based, Rhodobacter sphaeroides; conditions: SMM succinate; aerobic; ( ) = resistance but no deposition of Te^0
Procedure: as §1, §2, §3, §4

[12] = system: R. sphaeroides PRKA^-; test: as above; assay type: cell-based, Rhodobacter sphaeroides; conditions: for MIC K2 TeO3: SMM succinate; for Increase in TeO3^2- sensitivity: prkA deletion
Procedure: as §1, §2, §3, §4

[13] = system: R. sphaeroides PRKB^-; test: as above; assay type: cell-based, Rhodobacter sphaeroides; conditions: for MIC K2 TeO3: SMM succinate
Procedure: as §1, §2, §3, §4

[14] = system: R. sphaeroides PUC705B; test: as above; assay type: cell-based, Rhodobacter sphaeroides; conditions: SMM succinate
Procedure: as §1, §2, §3, §4

[15] = system: R. sphaeroides PUFB1; test: as above; assay type: cell-based, Rhodobacter sphaeroides; conditions: SMM succinate; aerobic; ( ) = resistance but no deposition of Te^0
Procedure: as §1, §2, §3, §4

[16] = system: R. sphaeroides PUHA1; test: as above; assay type: cell-based, Rhodobacter sphaeroides; conditions: for MIC K2 TeO3: SMM succinate
Procedure: as §1, §2, §3, §4

[17] = system: tellurite reductase activity, R. sphaeroides 2.4.1; test: TeO3^2- -dependent FADH2 oxidation in subcellular fractions; assay type: biochemical, Rhodobacter sphaeroides; conditions: for FADH2 oxidation: 100 μg/ml K2 TeO3
[18] = system: tellurite reductase activity, R. sphaeroides BC17; test: as above; assay type: biochemical, Rhodobacter sphaeroides; conditions: for FADH2 oxidation: 100 μg/ml K2 TeO3
[19] = system: tellurite reductase activity, R. sphaeroides PRKA^- B^-; test: as above; assay type: biochemical, Rhodobacter sphaeroides; conditions: 100 μg/ml K2 TeO3
[20] = system: R. sphaeroides 2.4.1; test: Isolation of tellurium from membrane fractions (Te^IV to Te^o conversion); assay type: cell-based, Rhodobacter sphaeroides
Procedure: Two one-liter cultures of R. sphaeroides 2.4.1 were grown photoheterotrophically (10 W/m^2 incident light intensity) in SMM containing 0.4% succinate to a cell density of approximately 1.5 1.5×10^9 cells/ml. Prior to inoculation one flask was supplemented with 275 mg K2 TeO3 (equivalent to 138.3 mg Te^IV) to give a final medium concentration of […] K2 TeO3.
850 mg of crude membrane-metal complex was isolated. After purification and extraction with acetone:methanol and ethanol, 203 mg of a finely-divided metallic material resulted. Analysis of a 50.4 mg sample of this material identified 23.2 mg of Te^o (a minimum net purity of 46%). The minimum Te^o deposited in the one-liter culture, therefore, was 93 mg (203 mg×0.46) or 0.7333 mmole. Since the growth medium initially contained 138.3 mg of Te^IV, a minimum Te^IV to Te^o conversion of 67% was obtained.

[21] = system: Proteobacteria; test: Intrinsic HLR to tellurite, comparison across strains; assay type: cell-based; conditions: aerobic vs photosynthetic; exception R. gelatinosus
[22] = photosynthetic and anaerobic-dark/DMSO, at least

SMILES: O=[Te]([O-])[O-].[K+].[K+] [K2 TeO3]
- MIC Low-PO4^3- Medium [1]: 600 µg/mL
- MIC Standard Medium [1]: 600 µg/mL
- MIC ratio 10 W/m^2 vs 3 W/m^2 [1]: at least two-fold
- MIC ratio aerobically- vs. photosynthetically-grown [1]: two- to three-fold
- MIC relative to E. coli [1]: at least 80 times
- Reduction in TeO3^2- resistance with supplement [1]: thirty- to forty-fold
- Relative toxicity [1]: SeO4^2- >TeO4^2- >TeO3^2- >SeO3^2- >Rh2 O3.5H2 O
- Resistance in words [1]: intrinsic high level resistance
- Resistance to tellurite in words [2]: low resistance
- MIC K2 TeO3 ([2]; aerobic, minimal medium): 20 µg/mL
- MIC K2 TeO3 ([2]; photosynthetic, 10 W/m^2): 10 µg/mL
- MIC K2 TeO3 ([3]; aerobic, minimal medium): 80 µg/mL
- MIC K2 TeO3 ([3]; photosynthetic, 10 W/m^2): 50 µg/mL
- MIC K2 TeO3 ([4]; aerobic, minimal medium): 800 µg/mL
- MIC K2 TeO3 ([4]; photosynthetic, 10 W/m^2): 500 µg/mL
- MIC K2 TeO3 ([5]; aerobic, minimal medium): 400 µg/mL
- MIC of RS2 lower than strain 2.4.1, 2.4.7 or WS8 [5]: approximately two-to three fold
- MIC of RS2 lower than strain 2.4.1, 2.4.7 or WS8 ([5]; listed as tellurite): approximately two- to three-fold
- MIC K2 TeO3 ([5]; photosynthetic, 10 W/m^2): 250 µg/mL
- MIC K2 TeO3 ([6]; aerobic): 600 µg/mL
- MIC K2 TeO3 ([6]; anaerobic-dark, 60 mM DMSO): 100 µg/mL
- MIC K2 TeO3 ([6]; photosynthetic 10 W/m^2): 450 µg/mL
- Increase in TeO3^2- sensitivity ([6]; vs wild-type): 20%
- Effect of 42-kb plasmid deletion on HLR [7]: did not diminish HLR to TeO3^2-
- MIC K2 TeO3 ([7]; aerobic): 850 µg/mL
- MIC K2 TeO3 ([7]; anaerobic-dark, 60 mM DMSO): 150 µg/mL
- MIC K2 TeO3 ([7]; photosynthetic 10 W/m^2): 600 µg/mL
- MIC K2 TeO3 ([8]; aerobic): 400 µg/mL
- MIC K2 TeO3 ([8]; anaerobic-dark, 60 mM DMSO): 50 µg/mL
- MIC K2 TeO3 ([8]; photosynthetic 10 W/m^2): 100 µg/mL
- Increase in TeO3^2- sensitivity ([8]; aerobic): two-fold
- Increase in TeO3^2- sensitivity [8, 22]: at least three- to five-fold
- MIC K2 TeO3 ([9]; aerobic): 750 µg/mL
- MIC K2 TeO3 ([9]; anaerobic-dark, 60 mM DMSO): 150 µg/mL
- MIC K2 TeO3 ([9]; photosynthetic 10 W/m^2): 650 µg/mL
- Diminution of HLR to TeO3^2- ([9]; single mutation in cfxB): 10-20%
- MIC K2 TeO3 [10]: 400 µg/mL
- MIC K2 TeO3 [11]: 400 µg/mL
- MIC K2 TeO3 ([12]; aerobic): 350 µg/mL
- MIC K2 TeO3 ([12]; anaerobic-dark, 60 mM DMSO): 60 µg/mL
- MIC K2 TeO3 ([12]; photosynthetic 10 W/m^2): 100 µg/mL
- Increase in TeO3^2- sensitivity ([12]; aerobic): two-fold
- Increase in TeO3^2- sensitivity [12, 22]: at least three- to five-fold
- MIC K2 TeO3 ([13]; aerobic): 800 µg/mL
- MIC K2 TeO3 ([13]; anaerobic-dark, 60 mM DMSO): 150 µg/mL
- MIC K2 TeO3 ([13]; photosynthetic 10 W/m^2): 500 µg/mL
- Diminution of HLR to TeO3^2- ([13]; single mutation in prkB): 10-20%
- MIC K2 TeO3 ([14]; aerobic): 850 µg/mL
- MIC K2 TeO3 ([14]; anaerobic-dark, 60 mM DMSO): 150 µg/mL
- MIC K2 TeO3 ([14]; photosynthetic 10 W/m^2): 500 µg/mL
- MIC K2 TeO3 [15]: 400 µg/mL
- MIC K2 TeO3 ([16]; aerobic): < 10 µg/mL
- MIC K2 TeO3 ([16]; anaerobic-dark, 60 mM DMSO): < 10 µg/mL
- Concentration to which strain is sensitive ([16]; all growth conditions): 10 µg/mL
- FADH2 oxidation ([17]; cytoplasm): 60 nmol/min/mg
- FADH2 oxidation ([17]; membrane): 300 nmol/min/mg
- FADH2 oxidation ([17]; periplasm): 1 nmol/min/mg
- Reductase activity in words ([17]; periplasmic and cytoplasmic fractions of all strains): Negligible reductase activity
- FADH2 oxidation ([18]; cytoplasm): 20 nmol/min/mg
- TeO3^2- -dependent FADH2 oxidase activity in words ([18]; in vitro): Neither BC17 nor PUHA1, two mutants which were previously shown to be tellurite sensitive under both aerobic and anaerobic-dark/DMSO growth conditions, expressed significant levels
- FADH2 oxidation ([18]; membrane): 51 nmol/min/mg
- FADH2 oxidation ([18]; periplasm): 2 nmol/min/mg
- FADH2 oxidation ([19]; membrane): 200 nmol/min/mg
- FADH2 oxidation ([19]; periplasm): 3 nmol/min/mg
- Te^IV to Te^o conversion ([20]; 250 μg/ml K2 TeO3, photoheterotrophic 10 W/m^2, minimum): ≥ 67%
- Localization of deposit after subcellular fractionation ([20]; discontinuous sucrose gradient): localized to the cytoplasmic membrane
- MIC increase, cells grown aerobically [21]: approximately 50%
